Common to all, as to format: cell-based
In one assay the target is T1, PTGER2 (EP2) (Homo sapiens, UniProt P43116).
T1 construct: host or cells: HEK 293 (PathHunter, stably transfected)
Put plainly: hEP2 b-Arrestin Assay (PathHunter HEK 293 PTGER2 b-arrestin cells, PGE2 5 μM). The note with it: antagonistic activity, beta-arrestin assay, HEK 293 PTGER2 cells, PGE2 5 μM (EC80); read-out: hEP2 b-arr IC50. As for the experimental part:
(§1) The antagonistic activities of the compounds of formula (I) on the EP2 and EP4 receptors are also determined in accordance with the following experimental method.
The assay is using the PathHunter™ HEK 293 PTGER2 and PTGER4 b-arrestin cell lines from DiscoverX. The system is based on the Enzyme Fragment Complementation Technology. Two complementing fragments of the b-galactosidase enzyme are expressed within stably transfected cells. The larger portion of b-gal, termed EA for Enzyme Acceptor, is fused to the C-terminus of b-arrestin 2. The smaller fragment, termed ProLink™ tag, is fused to PTGER2 (EP2) or PTRGER4 (EP4) at the C-terminus. Upon activation, b-arrestin is recruited which forces the interaction of ProLink and EA, allowing complementation of the two fragments of b-gal and the formation of a functional enzyme which is capable of hydrolysing the substrate and generating a chemiluminescent signal.
The HEK 293 PTGER2 b-arrestin cells (DiscoverX 93-021-4C1) are detached from culture dishes with a cell dissociation buffer (Invitrogen, 13151-014), and collected in growing medium (GM: DMEM+Glutamax-I (Invitrogen 32430)/10% FCS, 1% Penicilin/streptomycin). 5000 cells per well of a 384 well plate (white with white bottom Greiner 781080) are seeded in 20 μl per well of GM. Plate is incubated at 37° C., 5% CO2 for 24 hours.
Stock solutions of test compounds are made at a concentration of 10 mM in DMSO, and serially diluted in DMSO to concentrations required for inhibition dose response curves (tested concentration range 10 μM-2 nM or 1 μM-0.2 nM).
PGE2 (Cayman 14010, stock solution: 10 mM in DMSO) is used as agonist at 5 μM final concentration, corresponding to EC80.
Five microliters of diluted compounds are transferred into the assay plate. Plate is pre-incubated 15 minutes at 37° C. Then five microliters of PGE2 (final conc. 5 μM) are transferred into the assay plate. Plate is incubated 120 minutes at 37° C.
PathHunter Glo Detection Kit components are thawed and mix according to manufacturer's instructions: 1 part Galacton Star Substrate with 5 parts Emerald II™ Solution, and 19 parts of PathHunter Cell Assay Buffer, respectively. Twelve μl of reagent are transferred to the assay plate and incubate for 1 hour at room temperature in the dark. Luminescence counts are read on a BMG Fluostar Optima reader according to manufacturer's instructions.
For each compound concentration calculate of the percentage of activity compared to DMSO control value as average ±STDEV. (each concentration is measured in duplicate)
(§2) IC50 values and curves are generated with XLfit software (IDBS) using Dose-Response One Site model 203. When compounds were measured multiple times, mean values are given.

Another assay deals with T2, EP2 (Homo sapiens, UniProt P43116).
T2 construct: SF295 glioblastoma cells express high endogenous EP2 and no EP4; host or cells: SF295 glioblastoma cells
Put plainly: hEP2 cAMP Assay (SF295 glioblastoma cells, HTRF cAMP, PGE2 75 nM). The settings on record: antagonistic activity, PGE2 75 nM (EC80). As for the experimental part:
as §1
(§3) Human tumor cell lines expressing endogenously either EP4 or EP2 are used and cAMP accumulation in cells upon PGE2 stimulation is monitored. SF295 glioblastoma cells express high endogenous EP2 and no EP4, whereas BT549 breast cancer cells, express high endogenous EP4 levels and very low EP2 levels.
(§4) As a detection method for cAMP the HTRF (homogeneous time resolved fluorescence) Cisbio kit (HTRF cAMP dynamic 2 kit 20′000 tests Cisbio Cat. #62AM4PEC) was used, which is based on a competitive immunoassay using a Cryptate-labeled anti-cAMP antibody and d2-labeled cAMP. Native cAMP produced by cells or unlabeled cAMP (for the standard curve) compete with exogenously added d2-labeled cAMP (acceptor) for binding to monoclonal anti-cAMP-Eu3+Cryptate (donor). A FRET signal (Fluorescence Resonance Energy Transfer) is obtained only if the labeled anti-cAMP antibody binds the d2 labelled cAMP, thus the specific signal (i.e. energy transfer) is inversely proportional to the concentration of cAMP in the standard or sample.
The SF295 cells (NCI/No. 0503170) are detached from culture dishes with a cell dissociation buffer (Invitrogen, 13151-014), and collected in growing medium (GM: RPM11640 (Invitrogen 21875)/10% FCS, 1% Penicilin/streptomycin). Cells are counted washed and resuspended in assay buffer (AB; HBSS, 20 mM HEPES, 0.2% BSA; 2 mM IBMX). 4′000 cells in 5 μL of AB are seeded per well of a small volume 384 well plate (black with flat bottom, Greiner 784076).
(§5) Stock solutions of test compounds are made at a concentration of 10 mM in DMSO, and serially diluted in DMSO to concentrations required for inhibition dose response curves (tested concentration range 30 μM-0.4 nM; 30 μM-0.015 nM or 1 μM-0.01 nM).
PGE2 (Cayman 14010, stock solution: 75 μM in DMSO) is used as agonist at 75 nM final concentration, corresponding to EC80.
2.5 μL of diluted compounds are transferred into the assay plate. Plate is pre-incubated 45 minutes at room temperature. Subsequently, 2.5 μL of PGE2 (final conc. 75 nM) are transferred into the assay plate. Plate is incubated 30 minutes at room temperature. Five μL of each donor (anti-cAMP cryptate) and acceptor (cAMP-d2) are added and the plate is incubated another hour at room temperature in the dark and then read using a BMG LABTECH PHERAstar reader (Excitation: 337 nm, Emission: 620 and 665 nm).
(§6) The obtained Delta F (fluorescence) values (665 nm/620 nM) are converted into % cAMP values using the measurements of the cAMP calibrator provided in the kit. For each compound concentration the percentage of cAMP compared to DMSO control value as average ±STDEV (each concentration is measured in duplicate) is calculated.
as §2

The next assay deals with T3, EP4 (Homo sapiens, UniProt P35408).
T3 construct: BT549 breast cancer cells, express high endogenous EP4 levels and very low EP2 levels; host or cells: BT549 breast cancer cells
The assay is described as follows: hEP4 cAMP Assay (BT549 breast cancer cells, HTRF cAMP, PGE2 6 nM). The note with it: antagonistic activity, PGE2 6 nM (EC80). As for the experimental part: as §1, §3, §4
The BT549 cells (NCI/No. 0507282) are detached from culture dishes with a cell dissociation buffer (Invitrogen, 13151-014), and collected in growing medium (GM: RPMI1640 (Invitrogen 21875)/10% FCS, 1% Penicilin/streptomycin). Cells are counted washed and resuspended in assay buffer (AB; HBSS, 20 mM HEPES, 0.2% BSA; 2 mM IBMX). 4′000 cells in 5 μL of AB are seeded per well of a small volume 384 well plate (black with flat bottom, Greiner 784076).
as §5
PGE2 (Cayman 14010, stock solution: 6 uM in DMSO) is used as agonist at 6 nM final concentration, corresponding to EC80.
2.5 μL of diluted compounds are transferred into the assay plate. Plate is pre-incubated 45 minutes at room temperature. Subsequently, 2.5 μL of PGE2 (final conc. 6 nM) are transferred into the assay plate. Plate is incubated 30 minutes at room temperature. 5 μL of each donor (anti-cAMP cryptate) and acceptor (cAMP-d2) are added and the plate is incubated another hour at room temperature in the dark and then read using a BMG LABTECH PHERAstar reader (Excitation: 337 nm, Emission: 620 and 665 nm).
as §6, §2

The structures appear in SMILES notation.

T1 sequence (P43116 whole entry): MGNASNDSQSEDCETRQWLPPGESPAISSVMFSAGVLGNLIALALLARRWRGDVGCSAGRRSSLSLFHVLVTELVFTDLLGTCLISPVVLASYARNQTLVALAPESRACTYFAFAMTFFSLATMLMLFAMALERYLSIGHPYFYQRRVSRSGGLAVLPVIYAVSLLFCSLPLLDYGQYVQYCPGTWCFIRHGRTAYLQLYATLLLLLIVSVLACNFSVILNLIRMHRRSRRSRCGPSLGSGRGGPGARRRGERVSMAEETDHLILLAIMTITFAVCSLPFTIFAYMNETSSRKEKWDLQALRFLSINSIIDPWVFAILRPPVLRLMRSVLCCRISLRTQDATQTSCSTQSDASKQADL
T2 sequence (P43116 whole entry): as above
T3 sequence (P35408 whole entry): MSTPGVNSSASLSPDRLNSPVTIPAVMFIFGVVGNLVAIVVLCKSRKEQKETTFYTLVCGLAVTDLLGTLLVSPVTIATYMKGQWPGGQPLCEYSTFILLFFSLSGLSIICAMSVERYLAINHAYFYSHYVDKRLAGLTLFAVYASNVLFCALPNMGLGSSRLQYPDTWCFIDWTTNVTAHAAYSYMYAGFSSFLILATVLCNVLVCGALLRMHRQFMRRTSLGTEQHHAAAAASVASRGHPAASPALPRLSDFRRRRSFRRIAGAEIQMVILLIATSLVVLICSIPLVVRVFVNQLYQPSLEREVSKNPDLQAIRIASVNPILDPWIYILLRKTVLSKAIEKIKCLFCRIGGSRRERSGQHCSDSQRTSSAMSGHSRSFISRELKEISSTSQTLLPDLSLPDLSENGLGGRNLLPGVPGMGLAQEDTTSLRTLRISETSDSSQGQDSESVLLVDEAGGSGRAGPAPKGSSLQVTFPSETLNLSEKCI

For `CCOc1cc(-c2cc(NCCc3ccc(Cl)c4ccccc34)ncn2)ccc1OCC(=O)O` [Example 63, (4-{6-[2-(4-Chloro-naphthalen-1-yl)-ethylamino]-pyrimidin-4-yl}-2-ethoxy-phenoxy)-acetic acid], the IC50 on PTGER2 (EP2) is 99 nM; against EP2, 239 nM; at EP4 it was 300 nM.

As to `COc1cc(-c2cc(NCCc3c(OC)ccc4ncccc34)ncn2)sc1C1(O)COC1` [Example 89, 3-(3-Methoxy-5-{6-[2-(6-methoxy-quinolin-5-yl)-ethylamino]-pyrimidin-4-yl}-thiophen-2-yl)-oxetan-3-ol], the IC50 on PTGER2 (EP2) worked out at 178 nM; at EP2, 197 nM; on EP4 it was 878 nM.

For `Cc1ccc2c(cnn2C)c1CCNc1cc(-c2ccc3ccncc3c2)ncn1` [Example 115, [2-(1,5-Dimethyl-1H-indazol-4-yl)-ethyl]-(6-isoquinolin-7-yl-pyrimidin-4-yl)-amine], the IC50 on PTGER2 (EP2) stood at 245 nM; on EP2, 95 nM; against EP4, 493 nM.

As for `COc1ccc2ncccc2c1CCNc1cc(-c2ccc(C(=O)O)c(OC3CCC3)c2)ncn1` [Example 64, 2-Cyclobutoxy-4-{6-[2-(6-methoxy-quinolin-5-yl)-ethylamino]-pyrimidin-4-yl}-benzoic acid], the figures for the IC50 at PTGER2 (EP2), against EP2 and against EP4 were 106 nM, 80 nM and 872 nM, respectively.

Take `O=C(O)c1ccc(-c2cc(NCCc3c(F)ccc4ccccc34)ncn2)cc1OC1CCC1` [Example 94, 2-Cyclobutoxy-4-{6-[2-(2-fluoro-naphthalen-1-yl)-ethylamino]-pyrimidin-4-yl}-benzoic acid]: the IC50 on PTGER2 (EP2) turned out to be 34 nM; on EP2, 53 nM; on EP4, 368 nM.

As for `CCOc1cc(-c2cc(NCCc3c(C(F)F)ccc4ccccc34)ncn2)sc1C(=O)O` [Example 70, 5-{6-[2-(2-Difluoromethyl-naphthalen-1-yl)-ethylamino]-pyrimidin-4-yl}-3-ethoxy-thiophene-2-carboxylic acid], the IC50 worked out at 78 nM on PTGER2 (EP2), 163 nM at EP2 and 368 nM on EP4.

For `CCOc1cc(-c2cc(NCCc3c(C)ccc4cnccc34)ncn2)ccc1OCC(=O)O` [Example 86, (2-Ethoxy-4-{6-[2-(6-methyl-isoquinolin-5-yl)-ethylamino]-pyrimidin-4-yl}-phenoxy)-acetic acid], the IC50 was 177 nM at PTGER2 (EP2), 77 nM at EP2 and 674 nM on EP4.

`CCOc1cc(-c2cc(NCCc3c(C)ccc4c3cnn4C)ncn2)ccc1O` [Example 111, 4-{6-[2-(1,5-Dimethyl-1H-indazol-4-yl)-ethylamino]-pyrimidin-4-yl}-2-ethoxy-phenol]: the IC50 worked out at 50 nM on PTGER2 (EP2), 171 nM against EP2 and 855 nM against EP4.

For the molecule `CCOc1cc(-c2cc(NCCc3c(Br)ccc4ccccc34)ncn2)ccc1C(=O)O` [Example 7, 4-{6-[2-(2-Bromo-naphthalen-1-yl)-ethylamino]-pyrimidin-4-yl}-2-ethoxy-benzoic acid], the concentration for half-maximal inhibition (IC50) came to 22 nM on PTGER2 (EP2), 67 nM against EP2 and 909 nM at EP4.

`Cc1ccc(CCNc2cc(-c3ccc(C(=O)O)c(OC4CCC4)c3)ncn2)c2ccccc12` [Example 17, 2-Cyclobutoxy-4-{6-[2-(4-methyl-naphthalen-1-yl)-ethylamino]-pyrimidin-4-yl}-benzoic acid]: the IC50 at PTGER2 (EP2) is 95 nM; on EP2, 281 nM; against EP4, 270 nM.

Take `CCOc1cc(-c2cc(NCCc3ccc(F)c4ccccc34)ncn2)ccc1C(=O)O` [Example 19, 2-Ethoxy-4-{6-[2-(4-fluoro-naphthalen-1-yl)-ethylamino]-pyrimidin-4-yl}-benzoic acid]: the IC50 stood at 129 nM on PTGER2 (EP2), 93 nM against EP2 and 646 nM on EP4.

In the case of `CCOc1cc(-c2cc(NCCc3c(OC)ccc4ccccc34)ncn2)sc1CC(=O)O` [Example 132, (3-Ethoxy-5-{6-[2-(2-methoxy-naphthalen-1-yl)-ethylamino]-pyrimidin-4-yl}-thiophen-2-yl)-acetic acid], the figures for the IC50 on PTGER2 (EP2), against EP2 and against EP4 were 61 nM, 49 nM and 381 nM, respectively.

For `CCOc1cc(-c2cc(NCCc3c(OC)ccc4ncccc34)ncn2)ccc1NCC(=O)O` [Example 88, (2-Ethoxy-4-{6-[2-(6-methoxy-quinolin-5-yl)-ethylamino]-pyrimidin-4-yl}-phenylamino)-acetic acid], the IC50 was found to be 94 nM on PTGER2 (EP2), 155 nM on EP2 and 645 nM against EP4.

Take `CCOc1cc(-c2cc(NCCc3c(F)ccc4ccccc34)ncn2)ccc1OCC(=O)O` [Example 96, (2-Ethoxy-4-{6-[2-(2-fluoro-naphthalen-1-yl)-ethylamino]-pyrimidin-4-yl}-phenoxy)-acetic acid]: the values for the IC50 on PTGER2 (EP2), on EP2 and against EP4 were 66 nM, 180 nM and 426 nM, respectively.

These data come from US11446298B2, “Pyrimidine derivatives” (Idorsia Pharmaceuticals Ltd, priority 2017, dated 2022).
